Measured values taken from PMC10650756, “Synthesis and In Vivo Antiarrhythmic Activity Evaluation of Novel Scutellarein Analogues as Voltage-Gated Nav1.5 and Cav1.2 Channels Blockers” (Molecules, 2023).

Experiments:
Format in all cases: cell-based
Cav1.2 [1] = biological target: T1, Cav1.2 (Homo sapiens, UniProt Q13936); assay: whole-cell patch clamp of ICa in transfected HEK293 cells, VH -80 mV; conditions: read-out: % reduction of ICa amplitude at 1 μM
T1 construct: gene CACNA1C; human Cav1.2 expressed in HEK293 cells (plasmid printed as pCDNA3.1hCACNA2D)
T1 sequence (Q13936 whole entry): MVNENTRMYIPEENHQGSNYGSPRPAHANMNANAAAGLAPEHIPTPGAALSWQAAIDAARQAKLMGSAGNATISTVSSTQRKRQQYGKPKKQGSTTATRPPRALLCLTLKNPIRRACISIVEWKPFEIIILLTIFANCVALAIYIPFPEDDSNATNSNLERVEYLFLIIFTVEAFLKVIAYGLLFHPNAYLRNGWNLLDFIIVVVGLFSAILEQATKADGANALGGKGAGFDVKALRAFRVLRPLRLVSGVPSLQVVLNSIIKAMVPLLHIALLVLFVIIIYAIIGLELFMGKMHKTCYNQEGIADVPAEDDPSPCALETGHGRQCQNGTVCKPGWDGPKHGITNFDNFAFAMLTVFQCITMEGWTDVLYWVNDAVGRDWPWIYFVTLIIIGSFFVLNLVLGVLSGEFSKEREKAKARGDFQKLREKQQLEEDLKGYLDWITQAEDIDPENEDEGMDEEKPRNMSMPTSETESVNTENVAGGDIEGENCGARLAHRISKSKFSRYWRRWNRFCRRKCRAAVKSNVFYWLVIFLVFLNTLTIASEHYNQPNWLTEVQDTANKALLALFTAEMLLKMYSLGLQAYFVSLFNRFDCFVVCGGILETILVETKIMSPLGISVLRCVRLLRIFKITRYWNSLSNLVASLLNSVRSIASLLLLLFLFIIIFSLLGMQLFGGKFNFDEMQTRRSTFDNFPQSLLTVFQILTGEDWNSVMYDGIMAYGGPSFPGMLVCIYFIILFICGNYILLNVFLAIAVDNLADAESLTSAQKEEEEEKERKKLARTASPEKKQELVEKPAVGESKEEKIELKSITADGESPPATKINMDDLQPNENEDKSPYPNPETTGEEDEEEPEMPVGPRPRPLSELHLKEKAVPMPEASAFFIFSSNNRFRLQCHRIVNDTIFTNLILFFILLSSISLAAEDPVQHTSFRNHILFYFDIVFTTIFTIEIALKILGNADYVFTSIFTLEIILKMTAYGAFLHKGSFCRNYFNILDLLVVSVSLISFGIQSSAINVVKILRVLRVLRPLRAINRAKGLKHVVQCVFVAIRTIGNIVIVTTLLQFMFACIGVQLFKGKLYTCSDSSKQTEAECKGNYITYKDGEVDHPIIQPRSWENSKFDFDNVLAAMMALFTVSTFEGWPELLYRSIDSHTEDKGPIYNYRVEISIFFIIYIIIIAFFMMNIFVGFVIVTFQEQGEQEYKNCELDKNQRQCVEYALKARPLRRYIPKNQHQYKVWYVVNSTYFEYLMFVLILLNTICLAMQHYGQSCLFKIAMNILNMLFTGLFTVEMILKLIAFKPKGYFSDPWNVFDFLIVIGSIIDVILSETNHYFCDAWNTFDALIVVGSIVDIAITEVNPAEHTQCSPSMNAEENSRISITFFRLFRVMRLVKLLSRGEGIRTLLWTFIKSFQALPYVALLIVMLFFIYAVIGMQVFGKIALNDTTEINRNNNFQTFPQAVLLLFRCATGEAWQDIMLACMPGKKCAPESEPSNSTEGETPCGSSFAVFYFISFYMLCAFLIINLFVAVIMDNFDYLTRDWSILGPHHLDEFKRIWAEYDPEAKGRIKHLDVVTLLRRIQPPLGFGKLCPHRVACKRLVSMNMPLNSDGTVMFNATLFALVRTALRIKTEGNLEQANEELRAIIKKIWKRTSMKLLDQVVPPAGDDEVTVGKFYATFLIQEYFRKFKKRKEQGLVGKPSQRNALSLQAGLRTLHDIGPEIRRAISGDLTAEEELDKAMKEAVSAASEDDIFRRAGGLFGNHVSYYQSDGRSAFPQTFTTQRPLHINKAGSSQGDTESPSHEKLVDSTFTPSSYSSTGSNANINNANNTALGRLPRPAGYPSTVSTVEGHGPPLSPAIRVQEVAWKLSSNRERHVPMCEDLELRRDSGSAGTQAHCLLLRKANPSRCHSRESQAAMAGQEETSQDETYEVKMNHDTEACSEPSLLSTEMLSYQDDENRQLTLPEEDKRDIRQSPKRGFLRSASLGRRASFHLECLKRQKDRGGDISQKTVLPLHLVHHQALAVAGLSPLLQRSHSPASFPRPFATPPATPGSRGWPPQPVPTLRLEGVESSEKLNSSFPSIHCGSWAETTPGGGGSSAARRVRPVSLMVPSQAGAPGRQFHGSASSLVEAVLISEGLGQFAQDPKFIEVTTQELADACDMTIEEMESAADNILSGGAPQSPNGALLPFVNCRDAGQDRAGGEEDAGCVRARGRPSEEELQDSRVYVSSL

Cav1.2 [2] = biological target: T1, Cav1.2; assay: whole-cell patch clamp of ICa in transfected HEK293 cells, VH -80 mV; IC50 undefined (solubility); conditions: read-out: % reduction of ICa amplitude at 30 μM
Nav1.5 = biological target: T2, Nav1.5 (Homo sapiens, UniProt Q14524); assay: whole-cell patch clamp in transfected HEK293 cells; steady-state inactivation left-shifted at […], no change in current density or activation
T2 construct: gene SCN5A; human Nav1.5 (pCDNA3.1hSCN5A) expressed in HEK293 cells
T2 sequence (Q14524 whole entry): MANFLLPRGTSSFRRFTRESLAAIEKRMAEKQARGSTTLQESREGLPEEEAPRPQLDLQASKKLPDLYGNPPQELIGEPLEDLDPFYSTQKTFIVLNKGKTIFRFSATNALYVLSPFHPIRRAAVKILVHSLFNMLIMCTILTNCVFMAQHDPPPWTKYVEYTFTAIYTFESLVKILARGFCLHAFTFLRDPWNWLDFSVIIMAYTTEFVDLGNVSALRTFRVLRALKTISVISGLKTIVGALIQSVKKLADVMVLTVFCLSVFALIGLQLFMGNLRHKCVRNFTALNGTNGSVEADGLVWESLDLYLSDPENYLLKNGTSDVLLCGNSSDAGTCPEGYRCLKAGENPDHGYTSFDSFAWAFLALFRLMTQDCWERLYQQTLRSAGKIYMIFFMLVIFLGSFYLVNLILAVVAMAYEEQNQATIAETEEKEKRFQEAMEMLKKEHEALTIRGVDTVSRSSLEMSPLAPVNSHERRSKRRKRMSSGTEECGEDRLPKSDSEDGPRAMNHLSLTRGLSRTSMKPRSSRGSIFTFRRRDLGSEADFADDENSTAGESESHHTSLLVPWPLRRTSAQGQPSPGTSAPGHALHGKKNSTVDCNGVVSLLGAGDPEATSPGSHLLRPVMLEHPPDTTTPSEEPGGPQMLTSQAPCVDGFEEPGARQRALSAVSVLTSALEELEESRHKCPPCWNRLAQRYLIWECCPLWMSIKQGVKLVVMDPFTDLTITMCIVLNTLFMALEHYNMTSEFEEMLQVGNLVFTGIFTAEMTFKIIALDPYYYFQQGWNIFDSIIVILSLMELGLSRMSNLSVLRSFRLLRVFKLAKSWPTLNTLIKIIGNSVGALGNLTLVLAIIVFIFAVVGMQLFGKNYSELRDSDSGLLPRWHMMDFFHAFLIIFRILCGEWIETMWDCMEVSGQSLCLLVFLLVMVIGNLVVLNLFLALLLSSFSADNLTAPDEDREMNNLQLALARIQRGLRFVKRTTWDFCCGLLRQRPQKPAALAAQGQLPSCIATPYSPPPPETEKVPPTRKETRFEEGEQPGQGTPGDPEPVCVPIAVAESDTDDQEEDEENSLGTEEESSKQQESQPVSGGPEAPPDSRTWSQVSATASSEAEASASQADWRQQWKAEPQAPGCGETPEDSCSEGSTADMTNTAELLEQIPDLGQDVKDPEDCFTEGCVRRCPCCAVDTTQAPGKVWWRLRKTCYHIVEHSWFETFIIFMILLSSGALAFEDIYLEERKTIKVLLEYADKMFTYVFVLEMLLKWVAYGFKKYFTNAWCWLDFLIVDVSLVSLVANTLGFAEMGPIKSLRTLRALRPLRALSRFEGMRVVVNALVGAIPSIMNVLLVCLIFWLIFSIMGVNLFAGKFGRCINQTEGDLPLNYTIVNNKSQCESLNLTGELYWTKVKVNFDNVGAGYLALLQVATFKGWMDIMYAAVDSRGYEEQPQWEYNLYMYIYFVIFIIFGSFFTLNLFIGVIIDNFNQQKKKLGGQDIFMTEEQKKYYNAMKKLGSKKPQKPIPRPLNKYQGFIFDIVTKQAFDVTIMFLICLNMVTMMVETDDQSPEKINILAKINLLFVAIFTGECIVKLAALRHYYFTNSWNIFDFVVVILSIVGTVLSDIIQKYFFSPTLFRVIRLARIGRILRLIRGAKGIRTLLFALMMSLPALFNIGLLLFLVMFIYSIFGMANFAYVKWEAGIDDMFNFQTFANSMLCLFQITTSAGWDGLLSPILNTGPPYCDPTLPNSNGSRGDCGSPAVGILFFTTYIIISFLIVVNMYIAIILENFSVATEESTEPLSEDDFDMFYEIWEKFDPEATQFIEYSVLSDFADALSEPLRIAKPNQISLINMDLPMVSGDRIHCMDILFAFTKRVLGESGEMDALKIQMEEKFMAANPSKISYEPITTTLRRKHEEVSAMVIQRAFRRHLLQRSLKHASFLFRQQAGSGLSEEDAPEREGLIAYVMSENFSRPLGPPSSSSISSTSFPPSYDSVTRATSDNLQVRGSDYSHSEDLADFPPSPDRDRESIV

COC(=O)C1=C(C)NC(C)=C(C(=O)OC)C1c1ccccc1[N+](=O)[O-] [Nifedipine] showed an inhibition at 1 µM (Cav1.2 [1]) of ~97.9%.
In the case of CC(=O)Oc1ccc(-c2cc(=O)c3c(O)c4c(cc3o2)OC(c2ccccc2)(c2ccccc2)O4)cc1 [10e, 4-(9-Hydroxy-8-oxo-2,2-diphenyl-8H-[1,3]dioxolo[4,5-g]chromen-6-yl)phenyl acetate], the inhibition at 30 µM (Cav1.2 [2]) is reported as ~32.6% and the “whole-cell patch clamp in transfected HEK293 cells; steady-state inactivation le” value (Nav1.5) is reported as −94.1 ± 1.7 mV (inactivation V1/2 at 30 μM; control −84.4 ± 0.6 mV).
